Assay results: patent US20240150339A1, “Compounds and Their Use as PDE4 Activators” (Mironid Limited, priority 2021, published 2024)

Tested on: m-IMCD3 cells
Experiment: Inhibition of PGE2-stimulated in vitro cyst formation in 3D culture of m-IMCD3 cells
Format: cell-based, mouse
Settings: Mus musculus, mIMCD3, 144 h; 10 μM test compound; mean cyst area (%) compared to 100% for (DMSO + PGE2) and 0% for DMSO control; 100 nM PGE2; 6 days; read-out: % Cyst area after incubation with 10 μM test compound
Description: HEK 293 and MDCK cells (Public Health England, Cell Culture Collections) were maintained in Dulbecco's Modified Eagle's Medium (DMEM) supplemented with 10% (v/v) fetal bovine serum (FBS) (Seralab), 2 mM L-glutamine and 100 U/ml penicillin streptomycin cocktail (ThermoFisher); termed complete media. Clonal HEK 293 cell lines were maintained in complete media supplemented with 0.6 mg/mL G418 (Enzo Life Sciences). Mouse inner medullary collecting duct (m-IMCD3) cells [American Type Culture Collection (ATCC)] were maintained in media consisting of DMEM/Hams F-12 50/50 Mix (DMEM F12; Corning) supplemented with penicillin streptomycin cocktail (100 U/ml) and FBS (10% v/v) (DMEM F12-10% FBS).
The mouse Inner Medullary Collecting Duct cell line (m-IMCD3) spontaneously forms cystic spheroids in 3D culture with a Type 1 collagen/Matrigel extracellular matrix. This process can be stimulated with agents which raise intracellular cAMP, such as PGE2, and is used as an in vitro model for the formation of cystic structures in the kidneys of patients with ADPKD.
Rat Collagen I (Fisher Scientific) is prepared on ice by neutralising with 1M NaOH and diluting with a 2×volume of DMEM/F12+10% FBS for coating plate (coating mix) and a 2.2 volume of DMEM/F12+10% FBS for cell plating (plating mix). This is mixed 1:1.1 with ice cold Matrigel (Corning) for coating plates (coating mix), and 1:0.95 with Matrigel for cell plating (plating mix).
The assay is conducted in the wells of a 96-well plate culture dish using a total volume of 130 μl of collagen/Matrigel/DMEM F12-10% FBS suspension in growth media for each matrix plug per individual well. Initially, 30 μl of collagen/Matrigel/DMEM F12-10% FBS (coating mix) is added into the well of a 96 well plate and the collagen is set to a gel by incubating at 37° C. for at least 15 minutes. A second layer of 100 μl collagen/Matrigel suspension (plating mix) containing m-IMCD3 cells (2.75×10^6 m-IMCD3 cells per 96-well plate) is layered over the coating mix and the collagen/Matrigel/cell mix again set to a gel by incubating at 37° C. Cell cultures are maintained at 37° C. in an atmosphere of 5% CO2, 95% air.
Between 18 and 24h after plating, test compound(s) as DMSO stock solutions [0.1% (v/v) final DMSO concentration] and PGE2 (100 nM final concentration) in DMEM F12-10% FBS are added in quadruplicate wells per condition. Media, togetherwith the test compound and PGE2 are replenished after 2 or 3 days. After 6 days of culture z stack images of the wells are captured using the Nikon Eclipse Ti2-E microscope. Nikon General Analysis software is used to measure the following parameters in each well: the mean cyst area, the number of cysts, and the total cyst area.
PDE4 long form activators inhibited in vitro cyst formation in m-IMCD3 cells. Data are shown in FIG. 2 and Table 5 as mean cyst area (%), compared to 100% for (DMSO+PGE2) and 0% for DMSO control.

SMILES	activity at 10 µM [%]
O=C(NC1CCCC1)c1ccc2nc(C3CCNCC3)sc2c1 [Example 134, N-cyclopentyl-2-(piperidin-4-yl)benzo[d]thiazole-6-carboxamide]	16
CCN1CCC(c2nc3ccc(C(=O)NCc4ccncc4)cc3s2)CC1 [Example 275, 2-(1-ethylpiperidin-4-yl)-N-(pyridin-4-ylmethyl)benzo[d]thiazole-6-carboxamide]	-2
CCN1CCC(c2nc3ccc(C(=O)NC4CCCC4)c(C)c3s2)CC1 [Example 193, N-cyclopentyl-2-(1-ethylpiperidin-4-yl)-7-methylbenzo[d]thiazole-6-carboxamide]	2
O=C(NC1CCOCC1)c1ccc2nc(C3CCNCC3)sc2c1 [Example 138, 2-(piperidin-4-yl)-N-(tetrahydro-2H-pyran-4-yl)benzo[d]thiazole-6-carboxamide]	20
CCN1CCN(c2nc3ccc(C(=O)NCc4ccc(F)cc4)cc3s2)CC1 [Example 80, 2-(4-ethylpiperazin-1-yl)-N-(4-fluorobenzyl)benzo[d]thiazole-6-carboxamide]	26
COc1cc2nc(C3CCNCC3)sc2cc1C(=O)NC1CCOCC1 [Example 200, 5-methoxy-2-(piperidin-4-yl)-N-(tetrahydro-2H-pyran-4-yl)benzo[d]thiazole-6-carboxamide]	3
COc1ccc2c(c1)[C@H](NC(=O)c1ccc3nc(N4CCNCC4)sc3c1)CC2 [Example 107, (R)-N-(6-methoxy-2,3-dihydro-1H-inden-1-yl)-2-(piperazin-1-yl)benzo[d]thiazole-6-carboxamide]	17
CN1C[C@@H]2CN(c3nc4ccc(C(=O)NC5CCCCC5)cc4s3)C[C@@H]2C1 [Example 261, N-cyclohexyl-2-((3aR,6aS)-5-methylhexahydropyrrolo[3,4-c]pyrrol-2 (1H)-yl)benzo[d]thiazole-6-carboxamide]	3
CCN1CCN(c2nc3ccc(C(=O)NC(C)C)cc3s2)CC1 [Example 82, 2-(4-ethylpiperazin-1-yl)-N-isopropylbenzo[d]thiazole-6-carboxamide]	6
COc1cc2nc(N3CCNCC3)sc2cc1C(=O)N[C@H]1CCc2ccccc21 [Example 224, (S)-N-(2,3-dihydro-1H-inden-1-yl)-5-methoxy-2-(piperazin-1-yl)benzo[d]thiazole-6-carboxamide]	8
CCc1ccc(-c2nc3ccc(C(=O)N[C@H]4CCOc5ccccc54)cc3s2)cn1 [Example 29, (S)-N-(chroman-4-yl)-2-(6-ethylpyridin-3-yl)benzo[d]thiazole-6-carboxamide]	22
O=C(N[C@@H]1c2ccccc2C[C@H]1O)c1ccc2nc(C3CCNCC3)sc2c1 [Example 128, N-((1R,2R)-2-hydroxy-2,3-dihydro-1H-inden-1-yl)-2-(piperidin-4-yl)benzo[d]thiazole-6-carboxamide]	3
O=C(N[C@H]1CCOc2ccccc21)c1ccc2nc(N3CCN(CCO)CC3)sc2c1 [Example 120, (S)-N-(chroman-4-yl)-2-(4-(2-hydroxyethyl)piperazin-1-yl)benzo[d]thiazole-6-carboxamide]	-5
Cc1cc(C(=O)N[C@H]2CCOc3ccccc32)c(C)c2sc(C3CCNCC3)nc12 [Example 230, (S)-N-(chroman-4-yl)-4,7-dimethyl-2-(piperidin-4-yl)benzo[d]thiazole-6-carboxamide]	25
O=C(NC1CCCC1)c1ccc2nc(N3CC4(CNC4)C3)sc2c1 [Example 255, N-cyclopentyl-2-(2,6-diazaspiro[3.3]heptan-2-yl)benzo[d]thiazole-6-carboxamide]	11
O=C(N[C@H]1CCc2ccccc21)c1ccc2nc(N3CCNCC3)sc2c1 [Example 96, (S)-N-(2,3-dihydro-1H-inden-1-yl)-2-(piperazin-1-yl)benzo[d]thiazole-6-carboxamide]	2

SMILES	activity at 10 µM [%]
COCCOCCN1CCC(c2nc3ccc(C(=O)N[C@H]4CCOc5ccccc54)cc3s2)CC1 [Example 175, (S)-N-(chroman-4-yl)-2-(1-(2-(2-methoxyethoxy)ethyl)piperidin-4-yl)benzo[d]thiazole-6-carboxamide]	-14
CCN1CCC(c2nc3ccc(C(=O)N[C@H]4CCc5ccccc54)c(C)c3s2)CC1 [Example 196, (S)-N-(2,3-dihydro-1H-inden-1-yl)-2-(1-ethylpiperidin-4-vy)-7-methylbenzo[d]thiazole-6-carboxamide]	10
CN1CCC(c2nc3c(Cl)cc(C(=O)NC4CCCC4)cc3s2)CC1 [Example 231, 4-chloro-N-cyclopentyl-2-(1-methylpiperidin-4-yl)benzo[d]thiazole-6-carboxamide]	1
CN1CCC(c2nc3ccc(S(=O)(=O)NC4CCCC4)cc3s2)CC1 [Example 288, N-cyclopentyl-2-(1-methylpiperidin-4-yl)benzo[d]thiazole-6-sulfonamide]	11
Cc1ncccc1-c1nc2ccc(C(=O)N[C@H]3CCc4ccccc43)cc2s1 [Example 5, (S)-N-(2,3-dihydro-1H-inden-1-yl)-2-(2-methylpyridin-3-yl)benzo[d]thiazole-6-carboxamide]	1
CCN1CC(c2nc3ccc(C(=O)NC4CCCC4)cc3s2)C1 [Example 281, N-cyclopentyl-2-(1-ethylazetidin-3-yl)benzo[d]thiazole-6-carboxamide]	10
O=C(N[C@H]1CCc2cccc(F)c21)c1ccc2nc(N3CCNCC3)sc2c1 [Example 98, (S)-N-(7-fluoro-2,3-dihydro-1H-inden-1-yl)-2-(piperazin-1-yl)benzo[d]thiazole-6-carboxamide]	27
COc1ccc2c(c1)CC[C@@H]2NC(=O)c1ccc2nc(N3CCNCC3)sc2c1 [Example 108, (S)-N-(5-methoxy-2,3-dihydro-1H-inden-1-yl)-2-(piperazin-1-yl)benzo[d]thiazole-6-carboxamide]	22
Cc1cncc(-c2nc3ccc(C(=O)NCc4ccccc4)cc3s2)c1 [Example 30, N-benzyl-2-(5-methylpyridin-3-yl)benzo[d]thiazole-6-carboxamide]	21
CC(C)NC(=O)c1cc(C2CC2)c2nc(C3CCNCC3)sc2c1 [Example 232, 4-cyclopropyl-N-isopropyl-2-(piperidin-4-yl)benzo[d]thiazole-6-carboxamide]	-2
CCN1CCN(c2nc3c(OC)cc(C(=O)NC4CCCC4)cc3s2)CC1 [Example 222, N-cyclopentyl-2-(4-ethylpiperazin-1-yl)-4-methoxybenzo[d]thiazole-6-carboxamide]	1
CCN1CCN(c2nc3ccc(C(=O)N[C@@H]4CCOc5ccccc54)cc3s2)CC1 [Example 73, (R)-N-(chroman-4-yl)-2-(4-ethylpiperazin-1-yl)benzo[d]thiazole-6-carboxamide]	26
Cc1cc(C(=O)NC2CCCC2)cc2sc(C3CCNCC3)nc12 [Example 181, N-cyclopentyl-4-methyl-2-(piperidin-4-yl)benzo[d]thiazole-6-carboxamide]	13
O=C(NC1CCC(F)(F)CC1)c1ccc2nc(N3C4CCC3CN(CCCO)C4)sc2c1 [Example 243, N-(4,4-difluorocyclohexyl)-2-(3-(3-hydroxypropyl)-3,8-diazabicyclo[3.2.1]octan-8-yl)benzo[d]thiazole-6-carboxamide]	6
O=C(N[C@H]1CCOc2ccccc21)c1ccc2nc(N3CC4CCC(C3)N4)sc2c1 [Example 121, 2-(3,8-diazabicyclo[3.2.1]octan-3-yl)-N-((S)-chroman-4-yl)benzo[d]thiazole-6-carboxamide]	15
O=C(N[C@@H]1CCOc2cc(F)ccc21)c1ccc2nc(N3CCNCC3)sc2c1 [Example 88, (R)-N-(7-fluorochroman-4-yl)-2-(piperazin-1-yl)benzo[d]thiazole-6-carboxamide]	22
